For two compounds, TGI results are on record in PubChem BioAssay (NCI).

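Five concentrations, 48 hours, 96-well plates. At the TGI there is no net growth.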

Among the test systems are UO-31 renal; HCT-15 colon; M14 melanoma; SK-MEL-5 melanoma; OVCAR-5 ovarian; COLO 205 colon; BT-549 breast; A549 NSCLC; RPMI-8226 leukemia; SK-MEL-2 melanoma; KM12 colon; MDA-MB-231 breast; CCRF-CEM leukemia; SF-295 CNS; NCI-H23 lung; NCI-H460 lung; MCF7 breast; OVCAR-3 ovarian; CAKI-1 renal; EKVX NSCLC.
Common to all, as to test: NCI anticancer screen, dose series, 48 h

Consider `Cc1cc(NS(=O)(=O)c2ccc(NC(=O)c3cccc4c(NNc5ccc(S(N)(=O)=O)cc5)c5ccccc5nc34)cc2)no1`, for which the TGI in the assay with UO-31 renal, in the assay on HCT-15 colon, with M14 melanoma, in the assay with SK-MEL-5 melanoma, in the assay on OVCAR-5 ovarian and with COLO 205 colon was above 100 µM throughout. For the same compound, the TGI with BT-549 breast is above 100 µM; in the assay on A549 NSCLC, above 100 µM; in the assay with RPMI-8226 leukemia, above 100 µM; with SK-MEL-2 melanoma, 61 µM; with KM12 colon, above 100 µM; in the assay on MDA-MB-231 breast, above 100 µM. Further, the TGI in the assay on CCRF-CEM leukemia is 66.2 µM; with SF-295 CNS, above 100 µM; in the assay on NCI-H23 lung it was above 100 µM; in the assay with NCI-H460 lung, above 100 µM; in the assay on MCF7 breast it was above 100 µM; in the assay with OVCAR-3 ovarian, 71.1 µM. The TGI with CAKI-1 renal and in the assay on EKVX NSCLC was above 100 µM each time.
For the compound `COC(=O)Nc1nc2ccc(NS(=O)(=O)c3ccc(F)cc3)cc2[nH]1`, the TGI in the assay with UO-31 renal was above 100 µM; in the assay with HCT-15 colon it was above 100 µM; in the assay with M14 melanoma, above 100 µM; in the assay on SK-MEL-5 melanoma, above 100 µM; in the assay on OVCAR-5 ovarian, above 100 µM; in the assay with COLO 205 colon, 37.8 µM. In addition, the TGI in the assay on BT-549 breast was above 100 µM; in the assay on A549 NSCLC it was above 100 µM; with RPMI-8226 leukemia, 81.2 µM; in the assay with SK-MEL-2 melanoma, above 100 µM; in the assay on KM12 colon it was 74.7 µM; in the assay on MDA-MB-231 breast, above 100 µM. Moreover, the TGI was above 100 µM in the assay with CCRF-CEM leukemia; 70.4 µM in the assay on SF-295 CNS; above 100 µM in the assay on NCI-H23 lung; above 100 µM with NCI-H460 lung; above 100 µM with MCF7 breast; 16.2 µM in the assay on OVCAR-3 ovarian. Moreover, the TGI in the assay on CAKI-1 renal and in the assay with EKVX NSCLC was above 100 µM in each case.
